Laboratory results from patent EP2945607B1, “COSMETIC OR DERMATOLOGICAL EMULSION COMPRISING A MEROCYANINE AND AN EMULSIFYING SYSTEM CONTAINING AN ALKALI METAL SALT OF A PHOSPHORIC ACID ESTER OF A FATTY ALCOHOL” (L'Oréal, priority 2013, dated 2014).

Test: Color of the formulations: colorimetry of thin films on contrast map (spectro-colorimeter Minolta CM2600D), L*a*b* system
Assay type: physicochemical
Conditions: result in words; equivalent formulations (2 % merocyanine)
Method: Protocol for evaluating the color of the formulations
The color of the formulations was evaluated after preparation of thin films on contrast map. The formulations were deposited within a circle of 2.2 cm of diameter and planed to obtain thicknesses of reproducible deposit. The colorimetric measures were then made by means of a spectro-colorimeter Minolta CM2600D in two points of the film. This operation is twice reproduced, which leads to 4 experimental values by formulation.
The results are expressed in the system (L *, has *, b *) in which L* represents the luminance, a* represents the red-green axis (-a* = green, +a* = red) and b* represents the yellow-blue axis (-b* blue, +b* yellow). So, a* and b* express the shade of the compound.
The difference of color ΔE* was calculated from the variations ΔL*, Δa* et Δb* between the compound (2) and the compound MC11 with the following equation : ((ΔE*))^2 = ((ΔL*))^2 + ((Δa*))^2 + ((Δb*))^2 [formula] • ΔL* = L* formulation with compound MC11 - L* formulation with compound (2) • Δa* = a* formulation with compound MC11 - a* formulation with compound (2) • Δb* = b* formulation with compound MC11 - b* formulation with compound (2)
We consider that the difference of color between the two compounds is significant if ΔE* > 2.

SMILES: CCOCCOC(=O)/C(C#N)=C1\C=C(NCCCOC)CCC1 [Compound (2), 2-ethoxyethyl (2Z)-cyano{3-[(3-methoxypropyl)amino]cyclohex-2-en-1-ylidene}ethanoate]
- color compared with compound MC11 of WO2008/090066: significantly less yellow
